Here are results for 25 molecules from ChEMBL document CHEMBL5108015, “4,6-Disubstituted-1H-Indazole-4-Amine derivatives with immune-chemotherapy effect and in vivo antitumor activity” (Eur J Med Chem, 2022).

As usually defined, the IC50 is the concentration that inhibits the measured activity by half. Read a low IC50 as inhibition by little substance. The term inhibition denotes the percentage by which the read-out fell short of the control. A lower inhibition goes with a weak effect.

In assay [1] the target is T1, Indoleamine 2,3-dioxygenase 1 (Homo sapiens, UniProt P14902). Kind of assay: Inhibition of N-terminal hexa-histidine tagged human IDO1 (12 to 403 residues) expressed in Escherichia coli Transetta (DE3) using L-tryptophan as substrate preincubated with enzyme for 10 mins followed by substrate addition and measured after 30 to 60 mins by microplate reader analysis.
Target sequence in this assay (P14902 whole entry, the tested form may be a part): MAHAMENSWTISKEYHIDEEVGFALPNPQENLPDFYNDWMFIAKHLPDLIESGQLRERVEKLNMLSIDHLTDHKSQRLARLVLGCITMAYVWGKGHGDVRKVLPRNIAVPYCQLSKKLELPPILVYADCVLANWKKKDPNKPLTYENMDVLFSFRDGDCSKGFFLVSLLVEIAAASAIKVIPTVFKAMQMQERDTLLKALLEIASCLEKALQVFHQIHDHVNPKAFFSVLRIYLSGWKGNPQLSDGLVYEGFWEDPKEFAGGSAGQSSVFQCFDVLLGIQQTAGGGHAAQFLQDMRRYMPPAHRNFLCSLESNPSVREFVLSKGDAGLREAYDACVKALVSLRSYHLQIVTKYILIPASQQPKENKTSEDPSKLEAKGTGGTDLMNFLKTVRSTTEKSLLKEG
The target in assay [2] is T1, Indoleamine 2,3-dioxygenase 1. Briefly: Inhibition of N-terminal hexa-histidine tagged human IDO1 (12 to 403 residues) expressed in Escherichia coli Transetta (DE3) using L-tryptophan as substrate at 100 uM preincubated with enzyme for 10 mins followed by substrate addition and measured after 30 to 60 mins by microplate reader analysis relative to control. As to conditions: time 40-70 min.
Target sequence in this assay (P14902 whole entry, looked up, the tested form may be a part): as the sequence (P14902 whole entry, the tested form may be a part) above

For assay [3], the target named is T2, Tryptophan 2,3-dioxygenase (Homo sapiens, UniProt P48775). Kind of assay: Inhibition of N-terminal hexa-histidine tagged human TDO (19 to 388 residues) expressed in Escherichia coli Transetta (DE3) using L-tryptophan as substrate preincubated with enzyme for 10 mins followed by substrate addition and measured after 30 to 60 mins by microplate reader analysis.
Target sequence in this assay (P48775 whole entry, the tested form may be a part): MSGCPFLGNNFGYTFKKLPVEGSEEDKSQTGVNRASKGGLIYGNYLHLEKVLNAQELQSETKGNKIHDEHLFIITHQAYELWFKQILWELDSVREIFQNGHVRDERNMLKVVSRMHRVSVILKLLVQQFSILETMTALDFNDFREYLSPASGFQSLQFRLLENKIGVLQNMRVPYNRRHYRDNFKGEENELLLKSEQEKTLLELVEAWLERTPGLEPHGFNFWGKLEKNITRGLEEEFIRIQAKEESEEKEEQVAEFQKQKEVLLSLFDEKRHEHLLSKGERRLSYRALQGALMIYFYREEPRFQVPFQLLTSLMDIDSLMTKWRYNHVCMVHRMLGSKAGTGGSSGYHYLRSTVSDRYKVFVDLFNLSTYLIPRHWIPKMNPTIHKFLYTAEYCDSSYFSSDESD

In assay [4] the target is T2, Tryptophan 2,3-dioxygenase. Briefly: Inhibition of N-terminal hexa-histidine tagged human TDO (19 to 388 residues) expressed in Escherichia coli Transetta (DE3) using L-tryptophan as substrate at 100 uM preincubated with enzyme for 10 mins followed by substrate addition and measured after 30 to 60 mins by microplate reader analysis relative to control. The note with it: time 40-70 min.
Target sequence in this assay (P48775 whole entry, looked up, the tested form may be a part): as the sequence (P48775 whole entry, the tested form may be a part) above

Assay [5] has as its target T2, Tryptophan 2,3-dioxygenase. Kind of assay: Inhibition of N-terminal hexa-histidine tagged human TDO (19 to 388 residues) expressed in Escherichia coli Transetta (DE3) using L-tryptophan as substrate at 10 uM preincubated with enzyme for 10 mins followed by substrate addition and measured after 30 to 60 mins by microplate reader analysis relative to control. As to conditions: time 40-70 min.
Target sequence in this assay (P48775 whole entry, looked up, the tested form may be a part): as the sequence (P48775 whole entry, the tested form may be a part) above

Assay [6] deals with T1, Indoleamine 2,3-dioxygenase 1. Kind of assay: Inhibition of N-terminal hexa-histidine tagged human IDO1 (12 to 403 residues) expressed in Escherichia coli Transetta (DE3) using L-tryptophan as substrate at 10 uM preincubated with enzyme for 10 mins followed by substrate addition and measured after 30 to 60 mins by microplate reader analysis relative to control. The note with it: time 40-70 min.
Target sequence in this assay (P14902 whole entry, looked up, the tested form may be a part): as the sequence (P14902 whole entry, the tested form may be a part) above

Regarding `O=[N+]([O-])c1cc(OCc2ccccc2)ccc1CNc1cc(C(F)(F)F)cc2[nH]ncc12`, the values for the IC50 in assay [1] and in assay [3] were above 100 µM and 97 µM, respectively. In addition, the inhibition in assay [2] was determined as 20%; in assay [4] it was 55%; in assay [5] it was 49%; in assay [6] it was 10%.

With `FC(F)(F)c1cc(NCc2cccc3sccc23)c2cn[nH]c2c1`, the IC50 in assay [1] and in assay [3] was above 100 µM each time. For the same molecule, the inhibition in assay [2] worked out at 3%; in assay [4] it was 5%.

On to `CNC(=O)c1cccc(CNc2cc(C(F)(F)F)cc3[nH]ncc23)c1`, for which the half-maximal inhibitory concentration (IC50) is above 100 µM in assay [1] and 4.87 µM in assay [3]. The inhibition was 46% in assay [2], 91% in assay [4], 71% in assay [5] and 33% in assay [6].

On to `Nc1cccc(CNc2cc(C(F)(F)F)cc3[nH]ncc23)c1`, for which the IC50 was above 100 µM in assay [1] and 2.51 µM in assay [3]. Further, the inhibition in assay [2] stood at 55%; in assay [4], 89%; in assay [5], 68%; in assay [6] it was 24%.

In the case of `O=C(O)c1cccc(CNc2cc(C(F)(F)F)cc3[nH]ncc23)c1`, the half-inhibitory concentration (IC50) was above 100 µM in assay [1] and 1.69 µM in assay [3]. For the same molecule, the inhibition in assay [2] is 17%; in assay [4], 94%; in assay [5] it was 81%; in assay [6] it was 11%.

Turning to `N#Cc1cc(NCc2ccccc2[N+](=O)[O-])c2cn[nH]c2c1`, the half-inhibitory concentration (IC50) in assay [1] and in assay [3] was above 100 µM throughout. The inhibition amounted to 17% in assay [2], 41% in assay [4], 22% in assay [5] and 7% in assay [6].

For `O=[N+]([O-])c1ccccc1CNc1cc(Br)cc2[nH]ncc12`, the IC50 in assay [1] came out at 8.04 µM; in assay [3], 38.9 µM. In addition, the inhibition in assay [2] was 83%; in assay [4], 64%; in assay [5] it was 52%; in assay [6] it was 67%.

Consider `COC(=O)c1cc(NCc2ccccc2[N+](=O)[O-])c2cn[nH]c2c1`, for which the concentration for half-maximal inhibition (IC50) in assay [1] and in assay [3] was above 100 µM each time. Also, the inhibition in assay [2] was found to be 47%; in assay [4], 20%; in assay [5] it was 16%; in assay [6] it was 11%.

Regarding `O=C(O)CNc1cccc(CNc2cc(C(F)(F)F)cc3[nH]ncc23)c1`, the IC50 in assay [1] and in assay [3] was above 100 µM throughout. The inhibition in assay [2] came to 8%; in assay [4] it was 65%.

With `O=[N+]([O-])c1ccccc1CNc1cccc2[nH]ncc12`, the inhibition in assay [2] was found to be 65%; in assay [4], 87%; in assay [5] it was 45%; in assay [6], 25%. Further, the IC50 in assay [3] was 17 µM.

Turning to `FC(F)(F)c1cc(NC[C@H]2CCCCN2)c2cn[nH]c2c1`, the IC50 in assay [1] amounted to 24 µM; in assay [3] it was 0.46 µM. For the same molecule, the inhibition in assay [2] is 69%; in assay [4] it was 90%; in assay [5] it was 69%; in assay [6] it was 19%.

With `FC(F)(F)c1cc(NCc2cccc(Br)c2)c2cn[nH]c2c1`, the results for the IC50 in assay [1] and in assay [3] were above 100 µM and 19.1 µM, respectively. The inhibition in assay [2] stood at 51%; in assay [4], 84%; in assay [5] it was 67%; in assay [6], 23%.

Consider `CC(C)n1ncc2c(NCc3ccccc3[N+](=O)[O-])cc(C(F)(F)F)cc21`, for which the IC50 in assay [1] and in assay [3] was above 100 µM throughout. For the same molecule, the inhibition in assay [2] was determined as 13%; in assay [4], 32%; in assay [5] it was 35%; in assay [6] it was 7%.

For the molecule `O=[N+]([O-])c1cccc(CNc2cc(C(F)(F)F)cc3[nH]ncc23)c1`, the figures for the concentration for half-maximal inhibition (IC50) in assay [1] and in assay [3] were above 100 µM and 5.17 µM, respectively. Further, the inhibition is 69% in assay [2], 82% in assay [4], 60% in assay [5] and 45% in assay [6].

For `FC(F)(F)c1cc(NCC2CNC2)c2cn[nH]c2c1`, the IC50 in assay [1] and in assay [3] was above 100 µM throughout. For the same molecule, the inhibition in assay [2] came out at 22%; in assay [4], 49%; in assay [5] it was 5%; in assay [6], 10%.

For the molecule `O=C1NCc2c(NCc3ccccc3[N+](=O)[O-])cccc21`, the IC50 in assay [1] and in assay [3] was above 100 µM each time. Moreover, the inhibition in assay [2] was 9%; in assay [4], 29%; in assay [5], 23%; in assay [6], 8%.

Take `NCCn1ncc2c(NCc3ccccc3[N+](=O)[O-])cc(C(F)(F)F)cc21`: the IC50 in assay [1] and in assay [3] was above 100 µM each time. The inhibition in assay [2] was determined as 30%; in assay [4] it was 29%; in assay [5], 25%; in assay [6] it was 9%.

On to `Oc1ccc(CNc2cc(C(F)(F)F)cc3[nH]ncc23)cc1`, for which the IC50 in assay [1] came to 36.7 µM; in assay [3], 2.55 µM. Also, the inhibition in assay [2] is 81%; in assay [4], 91%; in assay [5], 75%; in assay [6], 37%.

Consider `O=[N+]([O-])c1ccc2[nH]c(CNc3cc(C(F)(F)F)cc4[nH]ncc34)cc2c1`, for which the half-inhibitory concentration (IC50) in assay [1] and in assay [3] was above 100 µM throughout. Moreover, the inhibition in assay [2] was 38%; in assay [4], 69%; in assay [5] it was 54%; in assay [6], 22%.

Take `OC1CCCC(Nc2cccc(CNc3cc(C(F)(F)F)cc4[nH]ncc34)c2)C1` (stereo not drawn): the IC50 in assay [1] and in assay [3] was above 100 µM each time. In addition, the inhibition in assay [2] is 2%; in assay [4] it was 23%.

`O=C1NC(=O)c2c(NCc3ccccc3[N+](=O)[O-])cccc21`: the IC50 in assay [1] and in assay [3] was above 100 µM throughout. The inhibition in assay [2] worked out at 4%; in assay [4], 25%; in assay [5], 17%; in assay [6], 11%.

On to `O=[N+]([O-])c1ccc(CNc2cc(C(F)(F)F)cc3[nH]ncc23)cc1`, for which the IC50 was 61 µM in assay [1] and above 100 µM in assay [3]. The inhibition in assay [2] was found to be 61%; in assay [4] it was 64%; in assay [5] it was 47%; in assay [6], 52%.

For `FC(F)(F)c1cccc(CNc2cc(C(F)(F)F)cc3[nH]ncc23)c1`, the IC50 in assay [1] was above 100 µM; in assay [3], 12.2 µM. Besides, the inhibition was 49% in assay [2], 74% in assay [4], 40% in assay [5] and 25% in assay [6].

Take `O=[N+]([O-])c1ccccc1CNc1cc(Br)cc2cn[nH]c12`: the IC50 in assay [1] and in assay [3] was above 100 µM in each case. Also, the inhibition in assay [2] was 9%; in assay [4], 48%; in assay [5], 35%; in assay [6], 4%.

Regarding `Oc1ccc(CNc2cc(C(F)(F)F)cc3[nH]ncc23)c(Cl)c1`, the IC50 stood at 6.02 µM in assay [1] and 2.68 µM in assay [3]. Also, the inhibition in assay [2] was 95%; in assay [4], 97%; in assay [5], 92%; in assay [6], 83%.
